Data on 26 compounds can be found in patent US20260209214A1, “LSD1 MODULATORS” (RECURSION PHARMACEUTICALS, INC., priority 2022, published 2026).

In the test the target is Recombinant human LSD1 (Homo sapiens, UniProt O60341). The test is described as follows: LSD1 inhibition assay (HTRF LSD1 Histone H3K4 mono-demethylation assay, me1->me0). To be noted: 20 nM recombinant human LSD1, 95 nM H3K4(me1) biotinylated peptide, 15 min preincubation, 60 min at 25° C., read-out: LSD1 inhibition IC50 (nM range). The class given is biochemical. The protocol:
LSD1 biochemical activity was measured using the HTRF® LSD1 Histone H3K4 mono-demethylation assay (me1->me0). Briefly, the enzymatic buffer was prepared by addition of 50 mM Tris-HCl (Sigma cat #T2663-IL), 50 mM NaCl (ThermoFisher cat #AM9759) and 0.01% Tween 20 (ThermoFisher cat #J20605.AP) in distilled water (final pH 8.5). This buffer was supplemented with 10 μM FAD (Fisher Scientific cat #11411838) and 1 mM DTT (Sigma cat #D0632). For the assay, H3K4(me1) biotinylated peptide substrate (Anaspec, cat #64355) was added to provide a final assay concentration of 95 nM. The streptavidin-XL665 (Cisbio cat #610SAXLA) and H3K4 me0-Eu(K) antibody-cryptate (Cisbio, cat #61 KAOKAD) detection reagents were mixed according to the manufacturer's instructions. Test compounds were diluted in DMSO in a series of 10 semi-log step doses; 10 nL of each compound dose were dispensed in 384 well plates. Recombinant human LSD1 was diluted into enzymatic buffer to provide a final assay concentration of 20 nM and added to the tested compounds for 15 minutes. The reaction was started by addition of the substrate and incubated at 25° C. for 60 minutes. The detection reagents were added, and the plate was incubated in the dark for 90 minutes. Fluorescence was measured on an Envision 2103 plate reader with optical setup for […] in the HTRF mode. The ratio of acceptor and donor emission signals was calculated for each well. Percent inhibition values were calculated from the HTRF ratios at different doses and fitted to a 4-parameter logistic curve to determine IC50 values. […]
In general terms: In TR-FRET formats the signal depends on donor and acceptor labels being close together.
For `N#Cc1ccc(-c2cccc(CC3CNCCCO3)c2N2CCC2)cc1F` (centres unmarked) [Example 46, 2′-(azetidin-1-yl)-3-fluoro-3′-[(1,4-oxazepan-2-yl)methyl]-[1,1′-biphenyl]-4-carbonitrile], the IC50 (usually the concentration at which inhibition is half-maximal) was 25 to 100 nM.

In the case of `CC1(O)CC2(CN(c3ccc(CC4CNCCO4)cc3-c3ccc(C#N)c(F)c3)C2)C1` (centres unmarked) [Example 165, 3-fluoro-2′-{6-hydroxy-6-methyl-2-azaspiro[3.3]heptan-2-yl}-5′-[(morpholin-2-yl)methyl]-[1,1′-biphenyl]-4-carbonitrile], the IC50 lay within 100 to 1000 nM.

Take `CN[C@@H]1CCN(Cc2cccc(-c3ccc(C#N)c(F)c3)c2C2CC2)C1` [Example 228, 2'-cyclopropyl-3-fluoro-3'-{[(3R)-3-(methylamino)pyrrolidin-1-yl]-methyl}-[1,1'-biphenyl]-4-carbonitrile]: the concentration for half-maximal inhibition (IC50) was 100 to 1000 nM.

As to `COCCOc1ccc(-c2ccc(CC3CNCCO3)cc2-c2ccc(C#N)c(F)c2)cc1` (centres unmarked) [Example 94, 3-fluoro-2′-[4-(2-methoxyethoxy)phenyl]-5′-[(morpholin-2-yl)methyl]-[1,1′-biphenyl]-4-carbonitrile], the IC50 was in the range of 25 to 100 nM.

For `N#Cc1ccc(-c2cc(CN3[C@@H]4CC[C@H]3[C@@H](N)C4)ccc2-c2ccsn2)cc1F` (racemic) [Example 252, 5'-{[(1S,2S,4R)-2-amino-7-azabicyclo[2.2.1]heptan-7-yl]methyl}-3-fluoro-2'-(1,2-thiazol-3-yl)-[1,1'-biphenyl]-4-carbonitrile], the IC50 was in the range of 25 to 100 nM.

For the compound `N#Cc1ccc(-c2cccc(CC3CNCCCO3)c2C2CC2)cc1F` (centres unmarked) [Example 82, 2′-cyclopropyl-3-fluoro-3′-[(1,4-oxazepan-2-yl)methyl]-[1,1′-biphenyl]-4-carbonitrile], the IC50 lay within 25 to 100 nM.

With `Cn1nccc1-c1c(CC2CNCCO2)cccc1-c1ccc(C#N)c(F)c1` (centres unmarked) [Example 156, 3-fluoro-2′-(1-methyl-1H-pyrazol-5-yl)-3′-[(morpholin-2-yl)methyl]-[1,1′-biphenyl]-4-carbonitrile], the IC50 lay in the range of 25 to 100 nM.

As to `N#Cc1ccc(-c2cccc(C[C@H]3CNCCO3)c2-c2ocnc2F)cc1F` [Example 15, 3-fluoro-2′-(4-fluoro-1,3-oxazol-5-yl)-3′-{[(2S)-morpholin-2-yl]methyl}-[1,1′-biphenyl]-4-carbonitrile], the IC50 is under 10 nM.

With `COc1cnc(-c2ccc(CC3CNCCO3)cc2-c2ccc(C#N)c(F)c2)cn1` (centres unmarked) [Example 132, 3-fluoro-2′-(5-methoxypyrazin-2-yl)-5′-[(morpholin-2-yl)methyl]-[1,1′-biphenyl]-4-carbonitrile], the IC50 was over 1000 nM.

As to `N#Cc1ccc(-c2cccc(C[C@H]3CNCCO3)c2-c2ccns2)cc1F` [Example 4, 3-fluoro-3′-{[(2S)-morpholin-2-yl]methyl}-2′-(1,2-thiazol-5-yl)-[1,1′-biphenyl]-4-carbonitrile], the IC50 is under 10 nM.

On to `N#Cc1ccc(-c2cccc(CN3[C@@H]4CC[C@H]3[C@@H](N)C4)c2OC(F)F)cc1F` (racemic) [Example 179, 3'-{[(1S,2S,4R)-2-amino-7-azabicyclo[2.2.1]heptan-7-yl]methyl}-2'-(difluoromethoxy)-3-fluoro-[1,1'-biphenyl]-4-carbonitrile], for which the IC50 lay within 10 to 25 nM.

`COCC1CCN(c2ccc(CC3CNCCO3)cc2-c2ccc(C#N)c(F)c2)CC1` (centres unmarked) [Example 67, 3-fluoro-2′-[4-(methoxymethyl)piperidin-1-yl]-5′-[(morpholin-2-yl)methyl]-[1,1′-biphenyl]-4-carbonitrile]: the IC50 is 25 to 100 nM.

Regarding `N#Cc1ccc(-c2cccc(CN3[C@H]4CC[C@H](N)[C@@H]3CC4)c2Cl)cc1F` (racemic) [Example 282, 3'-{[(1S,2S,5S)-2-amino-8-azabicyclo[3.2.1]octan-8-yl]methyl}-2'-chloro-3-fluoro-[1,1'-biphenyl]-4-carbonitrile], the IC50 is 100 to 1000 nM.

As to `CC1(N)CCCN(Cc2cccc(-c3ccc(C#N)c(F)c3)c2Cl)C1` (centres unmarked) [Example 286, 3'-[(3-amino-3-methylpiperidin-1-yl)methyl]-2'-chloro-3-fluoro-[1,1'-biphenyl]-4-carbonitrile], the IC50 is over 1000 nM.

`N#Cc1ccc(-c2cc(CC3CNCCO3)ccc2N2CCC2)cc1Cl` (centres unmarked) [Example 134, 4-[2-(azetidin-1-yl)-5-(morpholin-2-ylmethyl)phenyl]-2-chloro-benzonitrile]: the IC50 was over 1000 nM.

Turning to `N#Cc1ccc(-c2cccc(CN3C[C@H](N)C[C@H](C(F)(F)F)C3)c2Cl)cc1F` [Example 326, 3'-{[(3R,5S)-3-amino-5-(trifluoromethyl)piperidin-1-yl]methyl}-2'-chloro-3-fluoro-[1,1'-biphenyl]-4-carbonitrile], the IC50 was over 1000 nM.

For the compound `N#Cc1ccc(-c2cccc(CN3[C@@H]4CC[C@H]3[C@@H](N)C4)c2C2CC2)cc1F` (single isomer, unassigned) [Example 261], the IC50 lay in the range of 100 to 1000 nM.

Regarding `N#Cc1ccc(-c2cc(CN3CC4(CNCCO4)C3)ccc2N2CCCC2)cc1` [Example 343, 5'-({5-oxa-2,8-diazaspiro[3.5]nonan-2-yl}methyl)-2'-(pyrrolidin-1-yl)-[1,1'-biphenyl]-4-carbonitrile], the IC50 was over 1000 nM.

Take `C[C@@]1(N)CCN(Cc2cccc(-c3ccc(C#N)c(F)c3)c2-c2ccns2)C1` [Example 242, 3'-{[(3R)-3-amino-3-methylpyrrolidin-1-yl]methyl}-3-fluoro-2'-(1,2-thiazol-5-yl)-[1,1'-biphenyl]-4-carbonitrile]: the IC50 lay within 10 to 25 nM.

On to `N#Cc1ccc(-c2cccc(CC3CNCCO3)c2N2CC(F)C2)cc1F` (centres unmarked) [Example 40, 3-fluoro-2′-(3-fluoroazetidin-1-yl)-3′-[(morpholin-2-yl)methyl]-[1,1′-biphenyl]-4-carbonitrile], for which the half-maximal inhibitory concentration (IC50) was 100 to 1000 nM.

Take `N#Cc1ccc(-c2cc(F)cc(CC3CNCCO3)c2-c2ccns2)cc1F` (centres unmarked) [Example 18, 3,5′-difluoro-3′-[(morpholin-2-yl)methyl]-2′-(1,2-thiazol-5-yl)-[1,1′-biphenyl]-4-carbonitrile]: the IC50 lay within 10 to 25 nM.

Turning to `N#Cc1ccc(-c2cccc(CC3CNCCO3)c2-c2cncs2)cc1` (centres unmarked) [Example 34, 3′-[(morpholin-2-yl)methyl]-2′-(1,3-thiazol-5-yl)-[1,1′-biphenyl]-4-carbonitrile], the IC50 fell in the range of 10 to 25 nM.

With `N#Cc1ccc(-c2cccc(OC3CC4CNC3C4)c2-c2ccns2)cc1F` (centres unmarked) [Example 112, 3′-{2-azabicyclo[2.2.1]heptan-6-yloxy}-3-fluoro-2′-(1,2-thiazol-5-yl)-[1,1′-biphenyl]-4-carbonitrile], the IC50 lay within 10 to 25 nM.

As to `N#Cc1ccc(-c2cc(CN3[C@@H]4CC[C@H]3[C@@H](N)C4)ccc2Cl)cc1F` (racemic) [Example 305, 5'-{[(1S,2S,4R)-2-amino-7-azabicyclo[2.2.1]heptan-7-yl]methyl}-2'-chloro-3-fluoro-[1,1'-biphenyl]-4-carbonitrile], the IC50 was in the range of 25 to 100 nM.

`N#Cc1ccc(-c2cccc(C[C@@H]3CNCCO3)c2-c2ccno2)cc1F` (single isomer, unassigned) [Example 13]: the IC50 lay in the range of 10 to 25 nM.

In the case of `N#Cc1ccc(-c2cc(CC3CNCCO3)ccc2N2CCC3(CCOC3)CC2)cc1F` (centres unmarked) [Example 70, 3-fluoro-5′-[(morpholin-2-yl)methyl]-2′-{2-oxa-8-azaspiro[4.5]decan-8-yl}-[1,1′-biphenyl]-4-carbonitrile], the IC50 lay within 25 to 100 nM.
